Measurements as given in the NIST ThermoML archive (doi:10.1021/je201009c).

Test: xn = mol fraction of the nth substance listed
Settings: for surface tension liquid-gas: Capillary rise; for viscosity / mass density: 100.8 kPa, Liquid; for viscosity: Falling or rolling sphere viscometry; for mass density: Vibrating tube method

OCc1ccccc1 [benzenemethanol] + CCO
Settings | mass density [kg/m3] | surface tension liquid-gas [mN/m] | viscosity [mPa·s]
293.15 K, x2 = 0 | 1045.44 | 39.2 | 6.287
293.15 K, x2 = 0.05 | 1038.93 | 38.7 | 5.903
293.15 K, x2 = 0.1 | 1032.01 | 38.1 | 5.548
293.15 K, x2 = 0.1504 | 1024.72 | 37.5 | 5.197
293.15 K, x2 = 0.1999 | 1017.09 | 36.8 | 4.871
293.15 K, x2 = 0.2502 | 1008.95 | 36.1 | 4.55
293.15 K, x2 = 0.3003 | 1000.31 | 35.3 | 4.236
293.15 K, x2 = 0.3499 | 991.24 | 34.5 | 3.94
293.15 K, x2 = 0.3998 | 981.52 | 33.6 | 3.655
293.15 K, x2 = 0.45 | 971.12 | 32.7 | 3.377
293.15 K, x2 = 0.5001 | 960.01 | 31.8 | 3.107
293.15 K, x2 = 0.55 | 948.23 | 30.9 | 2.857
293.15 K, x2 = 0.5999 | 935.57 | 29.9 | 2.623
293.15 K, x2 = 0.65 | 921.93 | 28.9 | 2.392
293.15 K, x2 = 0.6997 | 907.34 | 28 | 2.169
293.15 K, x2 = 0.75 | 891.49 | 27.1 | 1.971
293.15 K, x2 = 0.7999 | 874.42 | 26.1 | 1.782
293.15 K, x2 = 0.8496 | 855.94 | 25.2 | 1.611
293.15 K, x2 = 0.8998 | 835.44 | 24.3 | 1.454
293.15 K, x2 = 0.95 | 813.26 | 23.3 | 1.305
303.15 K, x2 = 0 | 1037.45 | 38.1 | 4.579
303.15 K, x2 = 0.05 | 1030.91 | 37.5 | 4.276
303.15 K, x2 = 0.1 | 1024.02 | 36.9 | 4.006
303.15 K, x2 = 0.1504 | 1016.76 | 36.2 | 3.761
303.15 K, x2 = 0.1999 | 1009.06 | 35.5 | 3.529
303.15 K, x2 = 0.2502 | 1000.9 | 34.8 | 3.321
303.15 K, x2 = 0.3003 | 992.29 | 34.1 | 3.117
303.15 K, x2 = 0.3499 | 983.16 | 33.3 | 2.924
303.15 K, x2 = 0.3998 | 973.34 | 32.5 | 2.735
303.15 K, x2 = 0.45 | 962.91 | 31.6 | 2.542
303.15 K, x2 = 0.5001 | 951.76 | 30.7 | 2.368
303.15 K, x2 = 0.55 | 939.95 | 29.8 | 2.206
303.15 K, x2 = 0.5999 | 927.33 | 28.8 | 2.03
303.15 K, x2 = 0.65 | 913.64 | 27.8 | 1.873
303.15 K, x2 = 0.6997 | 898.99 | 26.9 | 1.716
303.15 K, x2 = 0.75 | 883.14 | 26 | 1.568
303.15 K, x2 = 0.7999 | 865.99 | 25.1 | 1.423
303.15 K, x2 = 0.8496 | 847.51 | 24.2 | 1.292
303.15 K, x2 = 0.8998 | 827.13 | 23.3 | 1.173
303.15 K, x2 = 0.95 | 805.04 | 22.3 | 1.06
313.15 K, x2 = 0 | 1029.61 | 37.2 | 3.335
313.15 K, x2 = 0.05 | 1023.04 | 36.6 | 3.171
313.15 K, x2 = 0.1 | 1016.21 | 35.9 | 3.002
313.15 K, x2 = 0.1504 | 1008.86 | 35.3 | 2.841
313.15 K, x2 = 0.1999 | 1001.16 | 34.6 | 2.688
313.15 K, x2 = 0.2502 | 992.96 | 33.9 | 2.539
313.15 K, x2 = 0.3003 | 984.28 | 33.2 | 2.389
313.15 K, x2 = 0.3499 | 975.05 | 32.4 | 2.244
313.15 K, x2 = 0.3998 | 965.24 | 31.6 | 2.101
313.15 K, x2 = 0.45 | 954.84 | 30.7 | 1.955
313.15 K, x2 = 0.5001 | 943.67 | 29.8 | 1.819
313.15 K, x2 = 0.55 | 931.78 | 28.9 | 1.684
313.15 K, x2 = 0.5999 | 919.04 | 27.9 | 1.561
313.15 K, x2 = 0.65 | 905.41 | 26.9 | 1.441
313.15 K, x2 = 0.6997 | 890.69 | 26 | 1.332
313.15 K, x2 = 0.75 | 874.75 | 25.1 | 1.236
313.15 K, x2 = 0.7999 | 857.51 | 24.2 | 1.146
313.15 K, x2 = 0.8496 | 838.83 | 23.3 | 1.048
313.15 K, x2 = 0.8998 | 818.48 | 22.4 | 0.972
313.15 K, x2 = 0.95 | 796.32 | 21.5 | 0.899
323.15 K, x2 = 0 | 1021.5 | 36.3 | 2.545
323.15 K, x2 = 0.05 | 1014.86 | 35.6 | 2.439
323.15 K, x2 = 0.1 | 1007.98 | 34.9 | 2.337
323.15 K, x2 = 0.1504 | 1000.57 | 34.2 | 2.238
323.15 K, x2 = 0.1999 | 992.89 | 33.5 | 2.142
323.15 K, x2 = 0.2502 | 984.67 | 32.8 | 2.041
323.15 K, x2 = 0.3003 | 975.99 | 32.1 | 1.941
323.15 K, x2 = 0.3499 | 966.71 | 31.3 | 1.844
323.15 K, x2 = 0.3998 | 956.84 | 30.5 | 1.746
323.15 K, x2 = 0.45 | 946.37 | 29.6 | 1.649
323.15 K, x2 = 0.5001 | 935.23 | 28.7 | 1.556
323.15 K, x2 = 0.55 | 923.28 | 27.8 | 1.462
323.15 K, x2 = 0.5999 | 910.48 | 26.8 | 1.368
323.15 K, x2 = 0.65 | 896.61 | 25.8 | 1.279
323.15 K, x2 = 0.6997 | 881.89 | 24.8 | 1.189
323.15 K, x2 = 0.75 | 865.88 | 23.9 | 1.105
323.15 K, x2 = 0.7999 | 848.64 | 23 | 1.022
323.15 K, x2 = 0.8496 | 830.07 | 22.1 | 0.937
323.15 K, x2 = 0.8998 | 809.62 | 21.2 | 0.854
323.15 K, x2 = 0.95 | 787.41 | 20.3 | 0.774
